From US20240353394A1, “ASSAY METHODS FOR SCREENING INHIBITORS OF SICKLE CELL DISEASE, ß-THALASSEMIA, OR SICKLE CELL ß-THALASSEMIA, OR A PHENOTYPE THEREOF” (Alexion Pharmaceuticals, Inc., priority 2021, published 2024)

Assays:
Assay type in all cases: cell-based, human
monocytes in whole blood = assay: Heme-induced tissue factor expression on monocytes in whole blood, flow cytometry; settings: hirudin whole blood; for Q2 % Parent TF+: CD14 monocytes, inhibitor 1 μM, heme 100 μM, 4 hrs 37° C., Table 5
Experimental: Human whole blood was obtained internally from healthy donors according to Institutional Review Board protocol. Blood was drawn into custom hirudin blood draw tubes obtained from Haematologic Technologies (cat. SCAT-296-5/5, 500 ATU/mL). This anti-coagulant allows simultaneous activation of complement and coagulation (through but not beyond thrombin). Blood was aliquoted into facs tubes (0.2 mL per tube) and inhibitors added to 1 μM. Heme was added to 100 μM and the samples were incubated for 4 hrs at 37° C., 5% CO2, mixing approximately every 30 minutes. To stain for flow cytometry, 10 μL of TruStain FcX (Biolegend, cat. 422302) was added for a 5-10 minute incubation at RT (to block IgG receptors). Mouse anti-human CD14 PerCP Cy5.5 (BD Biosciences, cat. 550787) (5 μL per sample) and mouse anti-human tissue factor-PE (BD Biosciences, cat. 550312) were added (20 μL per sample) and the samples were mixed and incubated for 30 minutes at RT. To lyse RBCs, 3 mLs of 1× lysis buffer (BD Biosciences Cat. 555899) was added to each tube followed by vortexing and incubation for 20 min at RT. The samples were centrifuges at 340 g for 5 minutes and washed twice with PBS. Cell pellets were resuspended in 0.5 mL PBS and acquired on the LSR Fortessa for flow cytometric analysis. Monocytes were gated via CD14 triggering and data was expressed as percentage of CD14 monocytes positive for tissue factor (TF).

HMEC-1 cells = assay: Heme-induced complement (iC3b, C5b-9) deposition on HMEC-1 cells, flow cytometry; settings: for Q2 % Parent iC3b+ / Q2 % Parent C5b-9+: HMEC-1, 20% normal human serum, 1 uM inhibitor, heme 400 μM, 20-30 min 37° C.; for Q2 % Parent iC3b+: Table 4, FIG. 4A; for Q2 % Parent C5b-9+: Table 4, FIG. 4B; for effect on heme-induced C3 deposition on endothelial cells / effect on heme-induced C5b-9 (MAC, TCC) deposition on endothelial cells: HMEC-1, heme and NHS; for effect on heme-induced C3 deposition on endothelial cells: FIG. 4A; for effect on heme-induced C5b-9 (MAC, TCC) deposition on endothelial cells: FIG. 4B
Experimental: The endothelial cell line HMEC-1 was purchased from ATCC (CRL 3243) and expanded and banked at AcCellerate (Cat. CBA02, lot 92-190318FG01). This is a dermal microvascular endothelial cell line. Cells were used in experiments at passage <5.
All centrifugation steps were performed for 5-7 min at 200-300 g at room temperature (RT). HMEC-1 cells were seeded into 6 well plates at 1.5×10^5 cells per well in medium (Endothelial cell growth medium MV2, Promocell, cat. 22022) and allowed to reach confluency (72 hrs). Normal human serum (Complement Technologies, cat. NHS) was spiked with 1 uM inhibitor, diluted to 20% using Live cell imaging solution (LCIS) (Invitrogen, cat A1429DJ) containing 5-10 mM MgEGTA and added to HMEC-1 cultures in place of the medium. Heme was added to 400 μM, mixed and incubated for 20-30 min at 37° C. Cells were rinsed twice with 2 mLs PBS (Corning, cat. 21-031-CV) and detached with PBS containing 10 mM EDTA (Corning, cat. 46-034-CI). Cells were centrifuged, pellets resuspended in 400 μL sheath fluid (BD Biosciences, cat. 342003) and transferred to V-bottom 96 well plates in duplicate. After centrifugation, pellets were resuspended in 50 μL per well sheath fluid containing either iC3b or C5b-9 antibody diluted to 4 μg/mL. Following several washes, the cells were incubated with 50 μL of goat anti mouse IgG (H+L) AF 488 diluted to 4 μg/mL in sheath fluid for 30 min at 4° C. Following several washes, cells were acquired on the LSR Fortessa for flow cytometry analysis.

SS-RBCs [1] = assay: Heme-induced complement (iC3b, C5b-9) deposition on SS-RBCs, flow cytometry; settings: for Q2 % Parent iC3b+ / Q2 % Parent C5b-9+: 20% autologous serum, heme 400 μM, 20-30 min 37° C.; for Q2 % Parent iC3b+: Table 3, FIG. 2A; for Q2 % Parent C5b-9+: Table 3, FIG. 2B; for effect on heme-induced C3 deposition (opsonization) on SS-RBCs / effect on heme-induced C5b-9 (MAC) deposition on SS-RBCs: heme and autologous serum; for effect on heme-induced C3 deposition (opsonization) on SS-RBCs: FIG. 2A; for effect on heme-induced C5b-9 (MAC) deposition on SS-RBCs: FIG. 2B
Excerpt: (§1) RBCs and serum from SCD patients homozygous for the mutation in the hemoglobin gene (SS) were obtained from BioIVT (cat HUMANRBCALSUZN and HMRBC-SCA respectively) and from Sanguine Biosciences (Study #24348). Gelatin Veronal Buffer (GVB) was obtained from Boston Bioproducts (cat. IBB-300X). Mg-EGTA (cat. B106), C8 depleted normal human serum (cat. A325) and normal human serum (cat. NHS) were obtained from Complement Technology. PBS was obtained from Corning, cat. 21-031-CV. Porcine heme (Sigma, cat. 51280) was used at various concentrations (50-800 uM) to amplify complement activation and induce deposition on human cells.
(§2) All centrifugations were performed at 440×g for 5 min at 4° C. and supernatants aspirated with multi-channel pipets to avoid disturbing the loose RBC pellets.
Patient SS-RBCs were washed two or three times in PBS. To induce complement deposition, RBCs were resuspended in GVB, 5 mM Mg-EGTA (assay buffer) at 5×10^7 cells/mL and 30 μL added to sterile V-96 wells. Autologous serum was added to 20% final concentration. Complement inhibitors were diluted in assay buffer at 5× working stock of 3.125 μM and 10 μL added to wells containing cells. Porcine heme was added to 400 μM and the cells incubated for 20-30 minutes at 37° C., 5% CO2. Complement activation was stopped by the addition of 150 μL/well PBS containing 10 mM EDTA. Cells were centrifuged and washed once with 200 μL PBS and stained for iC3b and C5b-9 deposition below.
Flow cytometric Analysis of iC3b and C5b-9 Deposition on the Surface of SS-RBCs
(§3) Cells were resuspended in 50 μL per well iC3b (Quidel, cat. A209) or C5b-9 antibody (Quidel, cat. A239) diluted to 4 μg/mL in PBS and incubated for 20-30 min at 4° C. (in some cases, staining for flow cytometry was performed in sheath fluid). Cells were washed twice with 150-200 μL PBS, resuspended in 50 μL goat anti-mouse IgG (H+L)-AF488 (Invitrogen cat. A11029) diluted to 4 μg/mL in PBS and incubated for 20-30 min at 4° C. In some experiments, goat anti-mouse IgG2b AF488 was used at 4 μg/mL (Invitrogen, cat. A21141). Cells were washed twice with 150-200 μL PBS and acquired on the LSR Fortessa for flow cytometric analysis.

SS-RBCs [2] = assay: Heme dose-dependent induction of iC3b deposition on SS-RBCs
Excerpt: as §1, §2
Patient SS-RBCs were washed three times in PBS, resuspended in GVB, 5 mM Mg-EGTA and re-distributed to sterile V-bottom 96 well plates at a concentration of 2×10^6 cells/well. […] Heme was used at 0, 100, 200, 400, and 800 μM. Following incubation for 20-30 minutes at 37° C. 5% CO2, PBS containing 10% EDTA (Corning, cat. 46-030-CI) was added to stop complement activation. RBCs were washed and stained with antibody to iC3b as detailed below.
as §3

whole blood = assay: IL-8 production in whole blood model of thromboinflammation; settings: heme, FIG. 6

Molecule: CC(=O)c1nn(CC(=O)N2[C@H](C(=O)Nc3nc(Br)ccc3C)C[C@@]3(C)C[C@@H]23)c2ccc(-c3cnc(C)nc3)cc12 [ALXN2050, vermincopan]
- Q2 % Parent TF+ (monocytes in whole blood): 1.4%
- Q2 % Parent iC3b+ (HMEC-1 cells): 3.4%
- Q2 % Parent C5b-9+ (HMEC-1 cells): 3%
- effect on heme-induced C3 deposition on endothelial cells (HMEC-1 cells): block
- effect on heme-induced C5b-9 (MAC, TCC) deposition on endothelial cells (HMEC-1 cells): block
- Q2 % Parent iC3b+ (SS-RBCs [1]): 3.5%
- Q2 % Parent C5b-9+ (SS-RBCs [1]): 3.4%

Molecule: C=CC1=C(C)c2cc3[n-]c(cc4[n-]c(cc5nc(cc1n2)C(C)=C5C=C)c(C)c4CCC(=O)O)c(CCC(=O)O)c3C.[Fe+2] [heme]
- Q2 % Parent iC3b+ (SS-RBCs [2]; 100 uM heme, 20% SS-Serum): 18.3%
- Q2 % Parent iC3b+ (SS-RBCs [2]; 100 uM heme, No Serum): 2%
- Q2 % Parent iC3b+ (SS-RBCs [2]; 200 uM Heme, 20% SS-Serum): 22.8%
- Q2 % Parent iC3b+ (SS-RBCs [2]; 200 uM Heme, No Serum): 1.3%
- Q2 % Parent iC3b+ (SS-RBCs [2]; 400 uM heme, 20% SS-Serum): 49.6%
- Q2 % Parent iC3b+ (SS-RBCs [2]; 400 uM heme, No Serum): 1.1%
- Q2 % Parent iC3b+ (SS-RBCs [2]; 800 uM heme, 20% SS-Serum): 69.7%
- Q2 % Parent iC3b+ (SS-RBCs [2]; 800 uM heme, No Serum): 0.8%
- induction of C3 deposition (opsonization) on SS-RBCs (SS-RBCs [2]; heme 100-800 μM, 20% autologous serum, FIG. 3): potent and dose dependent opsonization

B1: Crizanlizumab: antibody manufactured using the published sequence of Crizanlizumab, an anti-P-selectin antibody FDA approved for prevention of VOC in SCD (antibody, chains of the INN, looked up, V domains shown)
VH: QVQLVQSGAEVKKPGASVKVSCKVSGYTFTSYDINWVRQAPGKGLEWMGWIYPGDGSIKYNEKFKGRVTMTVDKSTDTAYMELSSLRSEDTAVYYCARRGEYGNYEGAMDYWGQGTLVTVSS
VL: DIQMTQSPSSLSASVGDRVTITCKASQSVDYDGHSYMNWYQQKPGKAPKLLIYAASNLESGVPSRFSGSGSGTDFTLTISSLQPEDFATYYCQQSDENPLTFGGGTKVEIK
- Q2 % Parent TF+ (monocytes in whole blood): 23.2%
- effect on heme-induced TF upregulation by monocytes (monocytes in whole blood; heme, FIG. 5A, FIG. 5B): no effect
- effect on IL-8 production (whole blood): no effect
- Q2 % Parent iC3b+ (HMEC-1 cells): 82.9%
- Q2 % Parent C5b-9+ (HMEC-1 cells): 53.7%
- effect on heme-induced C3 deposition on endothelial cells (HMEC-1 cells): no effect
- effect on heme-induced C5b-9 (MAC, TCC) deposition on endothelial cells (HMEC-1 cells): no effect
- Q2 % Parent iC3b+ (SS-RBCs [1]): 38.6%
- Q2 % Parent C5b-9+ (SS-RBCs [1]): 7.3%
- effect on heme-induced C3 deposition (opsonization) on SS-RBCs (SS-RBCs [1]): little to no effect
- effect on heme-induced C3 deposition (opsonization) on SS-RBCs (SS-RBCs [1]; listed as anti-P-selectin antibody): no effect
- effect on heme-induced C5b-9 (MAC) deposition on SS-RBCs (SS-RBCs [1]): little to no effect
- effect on heme-induced C5b-9 (MAC) deposition on SS-RBCs (SS-RBCs [1]; listed as anti-P selectin antibody): no effect
